Measurements published in publication PMC12257356, “Structure-guided engineering of a polyphosphate kinase 2 class III from an Erysipelotrichaceae bacterium to produce base-modified purine nucleotides” (RSC Chemical Biology, 2025).

Legend:
[1] = target: T1, EbPPK2 (polyphosphate kinase 2 class III from an Erysipelotrichaceae bacterium) (Erysipelotrichaceae bacterium, UniProt P0DY74); experiment: HPLC conversion to NDP/NTP; format: biochemical; details: 1 mM NMP, 1 μM enzyme, 6.1 g/L sodium polyphosphate, 20 mM MgCl2, 20 mM Tris pH 8, 30 °C, 10 min
T1 construct: gene DHS57_05705; purified; 146 kDa homotetramer
T1 sequence (P0DY74 1-298): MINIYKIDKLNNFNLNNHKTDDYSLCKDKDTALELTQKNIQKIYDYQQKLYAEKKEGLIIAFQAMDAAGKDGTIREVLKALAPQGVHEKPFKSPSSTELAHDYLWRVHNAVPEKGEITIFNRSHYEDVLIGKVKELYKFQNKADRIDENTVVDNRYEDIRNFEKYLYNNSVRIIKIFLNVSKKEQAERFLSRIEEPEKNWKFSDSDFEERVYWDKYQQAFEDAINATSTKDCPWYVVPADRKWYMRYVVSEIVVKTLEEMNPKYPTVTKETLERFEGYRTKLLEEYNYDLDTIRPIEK

[2] = target: T1, EbPPK2 (polyphosphate kinase 2 class III from an Erysipelotrichaceae bacterium); experiment: X-ray crystal structure; details: 1.7 Å; ternary complex with polyP and Mg2+; nucleotide-binding pocket of the active site

Nc1ncnc2c1ncn2[C@@H]1O[C@H](COP(=O)(O)O)[C@@H](O)[C@H]1O [1a, AMP]
HPLC conversion to NDP/NTP [1]: Starting from AMP (1a), the reaction approached a distribution of AMP

Nc1ncnc2c1ncn2[C@@H]1O[C@H](COP(=O)(O)OP(=O)(O)CP(=O)(O)O)[C@@H](O)[C@H]1O [adenosine-5′-[(β,γ)-methyleno]triphosphate]
X-ray crystal structure [2]: EbPPK2 in complex with the non-hydrolysable ATP analogue adenosine-5′-[(β,γ)-methyleno]triphosphate (ACP) and polyP (PDB: 9IGQ)

Nc1nc2c(ncn2[C@@H]2O[C@H](COP(=O)(O)O)[C@@H](O)[C@H]2O)c(=O)[nH]1 [5a, GMP]
HPLC conversion to NDP/NTP [1]: GMP and GMP-like analogues were phosphorylated more slowly by EbPPK
